Patent publication EP0007716A1, “R-N-(2-phenyl-2-hydroxyethyl)-3-phenylpropyl amines, their formulations, use and preparation” (ELI LILLY AND COMPANY, priority 1978, dated 1980)

Test system: dogs with induced myocardial infarction
Assay: Inotropic potency on intravenous administration to dogs with induced myocardial infarction
Type: in vivo
Conditions: for ED50: Canis lupus familiaris, dose required to effect a fifty percent increase in contractility, four dogs with induced myocardial infarction, read-out: Contractile potency (mcg./kg.)ED50; for Blood pressure change (mm/Hg)ED50: change in blood pressure attributable to the drug at the ED50 dose; for Blood pressure change (mm/Hg)ED50 / Heart rate increase (beats/min.)ED50: dogs with induced myocardial infarction; for Heart rate increase (beats/min.)ED50: increase in heart rate observed at the ED50 dose
Method: The compounds provided by this invention have been evaluated for their inotropic potency in anesthetized dogs and in conscious dogs with implanted cardiovascular transducers. The heart rate, cardiac output, systolic pressure and the derivative of the left ventricular pressure, which is the index of cardiac contractility, were measured.
Column 1 lists the compounds evaluated according to the test. Each of the compounds evaluated was administered intravenously to four dogs with induced myocardial infarction. Column 2 records the contractile potency of each compound as the dose in mcg./kg. of body weight required to effect a fifty percent increase in contractility (ED50). Column 3 presents the increase in heart rate observed at the EDSO dose. Column 4 records the change in blood pressure attributable to the administered drug.

Compound | ED50 | Blood pressure change (mm/Hg)ED50 | Heart rate increase (beats/min.)ED50
Oc1cccc(CCCNC[C@H](O)c2cccc(O)c2)c1 [R-N-[2-(3-Hydroxyphenyl)-2-hydroxyethyl]-3-(3-hydroxyphenyl)propylamine] | 1 µg/kg | +7 mm/Hg | 14 beats/min.
Oc1ccc(CCCNC[C@H](O)c2cccc(O)c2)cc1 [R-N-[2-(3-hydroxyphenyl)-2-hydroxyethyl]-3-(4-hydroxyphenyl)propylamine] | 5 µg/kg | +1 mm/Hg | 12 beats/min.
Oc1ccc([C@@H](O)CNCCCc2cccc(O)c2)cc1 [R-N-[2-(4-hydroxyphenyl)-2-hydroxyethyl]-3-(3-hydroxyphenyl)propylamine] | 1 µg/kg | -4 mm/Hg | 16 beats/min.
Oc1ccc(CCCNC[C@H](O)c2ccc(O)cc2)cc1 [R-N-[2-(4-hydroxyphenyl)-2-hydroxyethyl]-3-(4-hydroxy-phenyl)propylamine] | 4 µg/kg | +4 mm/Hg | 10 beats/min.
